From US20200237766A1, “PKM2 ACTIVATORS IN COMBINATION WITH REACTIVE OXYGEN SPECIES FOR TREATMENT OF CANCER” (TOLERO PHARMACEUTICALS, INC., priority 2017, published 2020)
Like-named read-outs stand apart in the source and are kept apart here.

Biological target: PKM2 (Homo sapiens, UniProt P14618)
Assay: PKM2 activation biochemical assay (AC50 / max. response vs fructose 1,6-bisphosphate)
Settings: for Max. Resp. (%): % maximum response in a biochemical assay as compared with Fructose 1,6-bisphosphate
[1] = biochemical assay, read-out: PKM2 AC50

Chain of PKM2 (P14618 whole entry): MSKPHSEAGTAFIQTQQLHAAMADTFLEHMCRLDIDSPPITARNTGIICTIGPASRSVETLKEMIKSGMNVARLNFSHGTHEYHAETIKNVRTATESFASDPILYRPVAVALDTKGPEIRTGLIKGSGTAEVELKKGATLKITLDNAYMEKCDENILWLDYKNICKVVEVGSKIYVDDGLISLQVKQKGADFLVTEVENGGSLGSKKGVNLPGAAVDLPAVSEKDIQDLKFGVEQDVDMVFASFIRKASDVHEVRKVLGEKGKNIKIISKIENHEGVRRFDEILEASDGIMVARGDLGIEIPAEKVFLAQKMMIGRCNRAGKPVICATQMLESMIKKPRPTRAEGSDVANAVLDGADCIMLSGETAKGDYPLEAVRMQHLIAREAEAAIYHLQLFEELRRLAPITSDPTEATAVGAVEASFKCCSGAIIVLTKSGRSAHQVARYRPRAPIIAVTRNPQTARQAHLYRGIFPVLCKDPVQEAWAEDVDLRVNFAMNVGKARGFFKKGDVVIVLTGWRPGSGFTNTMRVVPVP

Structure (SMILES)	Max. Resp. (%)	AC50 [1]	AC50
CO[C@H]1CC[C@H](N(Cc2cccc(N)c2)C(=O)c2cc(C(F)(F)F)n[nH]2)CC1 [Compound 54]	93%	365 nM	–
O=C(CCSC(=S)NCc1cccnc1)c1ccccc1 [PMA8]	24%	7640 nM	–
CCN(CC)CCN(Cc1cc(F)ccc1Cl)C(=O)c1cc(C(F)(F)F)n[nH]1 [Compound 171]	100%	–	88 nM
CCN(CC)CCCN(Cc1ccccc1Cl)C(=O)c1cc(C(F)(F)F)n[nH]1 [Compound 185]	53%	1750 nM	–
O=C(c1cc(C(F)(F)F)n[nH]1)N(CCN1CCS(=O)(=O)CC1)Cc1c(Cl)cccc1Cl [Compound 110]	84%	1640 nM	–
O=C(c1cc(C(F)(F)F)n[nH]1)N(CCC1CCS(=O)(=O)C1)Cc1c(F)cccc1F (centres unmarked) [Compound 66]	102%	–	375 nM
O=C(c1cc(C(F)(F)F)n[nH]1)N(Cc1ccccc1Cl)C1CCOCC1 [Compound 35]	59%	–	5080 nM
CNCc1c[nH]c2cccc(CN(CC3CCC3)C(=O)c3cc(Br)n[nH]3)c12 [Compound 121]	–	–	23000 nM
O=C(CCSC(=S)NCc1cccnc1)c1ccccc1Cl [PMA19]	63%	5610 nM	–
O=C(c1cc(C2CC2)n[nH]1)N(CCC(F)(F)F)Cc1ccc(O)cc1F [Compound 129]	–	–	10500 nM
Cc1ccc2nc(Cn3c(C)nc4ccccc43)cc(=O)n2c1 [PP2]	73%	–	–
CCN(CC)CCN(Cc1cc(N)ccc1Cl)C(=O)c1cc(C(F)(F)F)n[nH]1 [Compound 183]	100%	185 nM	–
O=C(c1cc(C(F)(F)F)n[nH]1)N(CCC1CCS(=O)(=O)C1)Cc1cc(F)cc(F)c1 (centres unmarked) [Compound 69]	74%	1830 nM	–
CCN(CC)CCN(Cc1ccccc1Cl)C(=O)c1cc(Br)n[nH]1 [Compound 175]	100%	–	305 nM
CO[C@H]1CC[C@H](N(Cc2cc(F)cc(F)c2)C(=O)c2cc(C(F)(F)F)n[nH]2)CC1 [Compound 51]	31%	50400 nM	–
CC1CCCCN1CCN(Cc1cc(N)ccc1Cl)C(=O)c1cc(C(F)(F)F)n[nH]1 (centres unmarked) [Compound 202]	100%	395 nM	–
Cc1ccn2c(=O)cc(Cn3cnc4ccccc43)nc2c1 [PP9]	–	216 nM	–
O=C(c1cc(C(F)(F)F)n[nH]1)N(CCC1CCOCC1)Cc1ccccc1F [Compound 41]	118%	1260 nM	–
O=C(c1cc(C(F)(F)F)n[nH]1)N(CCC(F)(F)F)Cc1ccc(O)cc1F [Compound 130]	100%	1000 nM	–
Nc1ccc(Cl)c(CN(CCN2CCCCCC2)C(=O)c2cc(C(F)(F)F)n[nH]2)c1 [Compound 196]	100%	99 nM	–
O=C(CCSC(=S)NCc1cccnc1)c1c[nH]c2ccccc12 [PMA31]	–	> 20000 nM	–
O=C(CCSC(=S)NCc1cccnc1)c1ccc[nH]1 [PMA27]	126%	> 20000 nM	–
O=C(c1cc(C(F)(F)F)n[nH]1)N(CCN1CCCCCC1)Cc1ccccc1Cl [Compound 189]	100%	24 nM	–
O=C(c1cc(Cl)n[nH]1)N(Cc1cccc2[nH]c(=O)sc12)CC1CCC1 [Compound 9]	80%	15400 nM	–
CCO[C@H]1CC[C@H](N(Cc2ccccc2F)C(=O)c2cc(C(F)(F)F)n[nH]2)CC1 [Compound 55]	101%	–	469 nM

Structure (SMILES)	Max. Resp. (%)	AC50 [1]	AC50
COCCCN(Cc1ccccc1F)C(=O)c1cc(C(F)(F)F)n[nH]1 [Compound 23]	75%	7540 nM	–
N#Cc1cc(C(=O)N(Cc2ccc(O)cc2F)CC2CCC2)[nH]n1 [Compound 2]	39%	–	3790 nM
O=C(c1cc(C(F)(F)F)n[nH]1)N(Cc1ccc(O)cc1F)C1CCCCC1 [Compound 139]	100%	152 nM	–
O=C(c1cc(C(F)(F)F)n[nH]1)N(CCC1CCS(=O)(=O)CC1)Cc1c(F)cccc1F [Compound 85]	100%	64 nM	–
CCN(CC)CCN(Cc1c(Cl)cccc1Cl)C(=O)c1cc(C(F)(F)F)n[nH]1 [Compound 169]	100%	66 nM	–
O=C(c1cc(C(F)(F)F)n[nH]1)N(CCN1CCC(O)CC1)Cc1ccccc1Cl [Compound 219]	100%	1300 nM	–
COC1CCN(CCN(Cc2c(N)cccc2Cl)C(=O)c2cc(C(F)(F)F)n[nH]2)C1 (centres unmarked) [Compound 235]	100%	133 nM	–
O=C(c1cc(C(F)(F)F)n[nH]1)N(Cc1ccccc1F)c1ncco1 [Compound 25]	35%	53000 nM	–
O=C(c1cc(C(F)(F)F)n[nH]1)N(Cc1cccc(F)c1O)CC1CCC1 [Compound 136]	100%	380 nM	–
COc1ccccc1C(=O)CCSC(=S)NCc1cccnc1 [PMA18]	88%	3930 nM	–
O=C(c1cc(C(F)(F)F)n[nH]1)N(CCN1CCCC1)Cc1cccc2[nH]cc(F)c12 [Compound 206]	100%	136 nM	–
CCN(CC)CCN(Cc1cccc2[nH]ccc12)C(=O)c1cc(C(F)(F)F)n[nH]1 [Compound 161]	100%	76 nM	–
O=C(c1cc(C(F)(F)F)n[nH]1)N(Cc1cccc2[nH]cnc12)CC1CCC1 [Compound 123]	100%	–	828 nM
CC(C)O[C@H]1CC[C@H](N(Cc2ccccc2Cl)C(=O)c2cc(C(F)(F)F)n[nH]2)CC1 [Compound 53]	63%	2290 nM	–
Nc1cccc(Cl)c1CN(CCN1CCC(O)C1)C(=O)c1cc(C(F)(F)F)n[nH]1 (centres unmarked) [Compound 234]	100%	111 nM	–
COc1cccc(NS(=O)(=O)c2cc3c(cc2Cl)NC(=O)CO3)c1 [PP20]	108%	153 nM	–
COCCN(Cc1ccc(O)cc1F)C(=O)c1cc(C(F)(F)F)n[nH]1 [Compound 142]	100%	1190 nM	–
O=C(c1cc(C(F)(F)F)n[nH]1)N(CCC1CCS(=O)(=O)C1)Cc1ncccc1Cl (centres unmarked) [Compound 92]	74%	1290 nM	–
O=C(c1cc(C(F)(F)F)n[nH]1)N(Cc1ccccc1Cl)CC1COC1 [Compound 27]	47%	–	33000 nM
O=C(c1cc(C(F)(F)F)n[nH]1)N(CCN1CCCCC1)Cc1ccccc1Cl [Compound 173]	100%	66 nM	–
CCOCCCN(Cc1ccccc1Cl)C(=O)c1cc(C(F)(F)F)n[nH]1 [Compound 38]	47%	33000 nM	–
CN1CCN(CCN(Cc2ccccc2Cl)C(=O)c2cc(C(F)(F)F)n[nH]2)CC1 [Compound 104]	63%	17000 nM	–
O=C(c1cc(C(F)(F)F)n[nH]1)N(CCO)Cc1ccc(O)cc1F [Compound 137]	70%	6200 nM	–
Nc1cccc(Cl)c1CN(CCN1CCCOCC1)C(=O)c1cc(C(F)(F)F)n[nH]1 [Compound 239]	100%	–	115 nM
O=C(c1cc(C(F)(F)F)n[nH]1)N(Cc1ccccc1F)C1CCCCC1 [Compound 153]	57%	19000 nM	–
